The record followed here is ChEMBL document CHEMBL5465560, “Selectivity Literature for EUbOPEN Chemogenomic Library” (2024).

In test [1] the target is CDK1/Cyclin A (Homo sapiens) (UniProt P06493+P20248). The experiment in a line: Selectivity interaction (LanthaScreen Eu Kinase Binding Assay) EUB0001632a CDK1. In kind it is protein-complex assay. Conditions: at 10 µM.
The target in test [2] is Mitogen-activated protein kinase kinase kinase 10 (Homo sapiens) (UniProt Q02779). Kind of test: Selectivity interaction (Kinase panel (KiNativ target engagement assay in Jurkat cells)) EUB0001635a MAP3K10. In kind it is cell-based. The settings on record: Selectivity number of off-targets 0.0, Selectivity number of targets 233.0, Source Knowledge https://www.sciencedirect.com/science/article/pii/S2451945619300674?via%3Dihub, at 1 µM.

Test [3] has as its target Ribosomal protein S6 kinase alpha-1 (Homo sapiens, UniProt Q15418). The experiment in a line: Selectivity interaction (Kinase panel (KiNativ target engagement assay in Jurkat cells)) EUB0001635a RPS6KA1. Format: cell-based. The settings on record: Selectivity number of off-targets 0.0, Selectivity number of targets 233.0, Source Knowledge https://www.sciencedirect.com/science/article/pii/S2451945619300674?via%3Dihub, at 1 µM.

The target of test [4] is T1, Ephrin type-B receptor 2 (Homo sapiens) (UniProt P29323).
T1 sequence (whole entry): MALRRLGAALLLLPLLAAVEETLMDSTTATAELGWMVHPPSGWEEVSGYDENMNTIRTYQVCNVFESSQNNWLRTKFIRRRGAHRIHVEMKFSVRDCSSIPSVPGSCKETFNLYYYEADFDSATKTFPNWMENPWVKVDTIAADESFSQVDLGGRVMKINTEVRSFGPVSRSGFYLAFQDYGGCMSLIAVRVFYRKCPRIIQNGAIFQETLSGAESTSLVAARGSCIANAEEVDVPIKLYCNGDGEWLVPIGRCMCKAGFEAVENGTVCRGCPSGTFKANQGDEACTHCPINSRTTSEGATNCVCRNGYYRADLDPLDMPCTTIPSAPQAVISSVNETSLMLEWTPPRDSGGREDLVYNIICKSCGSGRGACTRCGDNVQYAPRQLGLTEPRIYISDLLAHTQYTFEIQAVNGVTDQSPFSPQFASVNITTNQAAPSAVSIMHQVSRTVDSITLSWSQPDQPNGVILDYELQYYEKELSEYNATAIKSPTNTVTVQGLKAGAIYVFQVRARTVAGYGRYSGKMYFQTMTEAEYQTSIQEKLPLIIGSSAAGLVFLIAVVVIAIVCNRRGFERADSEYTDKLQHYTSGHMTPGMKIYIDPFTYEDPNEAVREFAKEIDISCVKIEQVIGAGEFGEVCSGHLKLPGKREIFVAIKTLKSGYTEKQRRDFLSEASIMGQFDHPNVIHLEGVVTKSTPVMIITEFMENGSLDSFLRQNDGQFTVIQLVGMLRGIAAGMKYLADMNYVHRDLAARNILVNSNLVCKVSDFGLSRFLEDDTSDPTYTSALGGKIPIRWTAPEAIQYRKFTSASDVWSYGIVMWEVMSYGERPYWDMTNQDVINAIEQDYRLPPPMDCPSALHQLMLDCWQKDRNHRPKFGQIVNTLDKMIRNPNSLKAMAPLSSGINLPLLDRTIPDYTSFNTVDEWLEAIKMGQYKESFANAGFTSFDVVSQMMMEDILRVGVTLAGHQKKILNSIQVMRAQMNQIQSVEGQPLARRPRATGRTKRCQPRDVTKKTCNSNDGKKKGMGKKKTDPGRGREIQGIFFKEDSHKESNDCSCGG
The experiment in a line: Selectivity interaction (SelectScreen profiling (Invitrogen)) EUB0000607a EPHB2. Conditions: at 2 µM.

The target of test [5] is Macrophage-stimulating protein receptor (Homo sapiens, UniProt Q04912). Kind of test: Selectivity interaction (KinomeScan (DiscoverX)) EUB0000666a MST1R. Conditions: at 10 µM.
Test [6] deals with T2, Serine/threonine-protein kinase TBK1 (Homo sapiens) (UniProt Q9UHD2).
T2 sequence (whole entry): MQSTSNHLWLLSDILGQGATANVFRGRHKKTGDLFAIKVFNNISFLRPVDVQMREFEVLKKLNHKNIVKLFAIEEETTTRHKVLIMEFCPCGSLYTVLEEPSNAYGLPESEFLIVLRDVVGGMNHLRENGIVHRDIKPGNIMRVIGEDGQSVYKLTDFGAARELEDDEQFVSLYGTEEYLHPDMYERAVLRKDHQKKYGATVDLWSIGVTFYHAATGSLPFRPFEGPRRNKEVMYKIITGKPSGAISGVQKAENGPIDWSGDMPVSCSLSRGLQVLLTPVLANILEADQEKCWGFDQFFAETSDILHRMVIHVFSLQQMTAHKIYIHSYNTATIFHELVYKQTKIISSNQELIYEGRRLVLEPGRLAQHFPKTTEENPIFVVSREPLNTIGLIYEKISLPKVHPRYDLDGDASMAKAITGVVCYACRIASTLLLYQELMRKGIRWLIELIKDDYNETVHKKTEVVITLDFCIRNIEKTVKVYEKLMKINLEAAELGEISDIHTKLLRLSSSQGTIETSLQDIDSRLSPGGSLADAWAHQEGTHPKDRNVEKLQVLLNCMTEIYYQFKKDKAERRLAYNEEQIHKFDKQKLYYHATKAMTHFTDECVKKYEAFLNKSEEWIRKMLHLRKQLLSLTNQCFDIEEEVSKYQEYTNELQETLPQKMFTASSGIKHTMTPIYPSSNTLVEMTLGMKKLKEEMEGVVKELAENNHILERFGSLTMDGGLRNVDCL
Kind of test: Selectivity interaction (KinomeScan (DiscoverX)) EUB0001079a TBK1. Conditions: at 1 µM.

Test [7] has as its target Ribosomal protein S6 kinase alpha-5 (Homo sapiens) (UniProt O75582). Kind of test: Selectivity interaction (Kinase panel (literature)) EUB0001199aCl RPS6KA5. The settings on record: at 1 µM.
Test [8] deals with Ribosomal protein S6 kinase beta-2 (Homo sapiens) (UniProt Q9UBS0). The experiment in a line: Selectivity interaction (ActivX KiNativ screen (kinase selectivity in THP-1 cell lysates)) EUB0000639a RPS6KB2. In kind it is subcellular. Conditions: lysate.
Test [9] concerns the target Vascular endothelial growth factor receptor 3 (Homo sapiens, UniProt P35916). The experiment in a line: Selectivity interaction (KinomeScan (DiscoverX)) EUB0000045b FLT4.

Ribosomal protein S6 kinase beta-2 (Homo sapiens), sequence (Q9UBS0 whole entry): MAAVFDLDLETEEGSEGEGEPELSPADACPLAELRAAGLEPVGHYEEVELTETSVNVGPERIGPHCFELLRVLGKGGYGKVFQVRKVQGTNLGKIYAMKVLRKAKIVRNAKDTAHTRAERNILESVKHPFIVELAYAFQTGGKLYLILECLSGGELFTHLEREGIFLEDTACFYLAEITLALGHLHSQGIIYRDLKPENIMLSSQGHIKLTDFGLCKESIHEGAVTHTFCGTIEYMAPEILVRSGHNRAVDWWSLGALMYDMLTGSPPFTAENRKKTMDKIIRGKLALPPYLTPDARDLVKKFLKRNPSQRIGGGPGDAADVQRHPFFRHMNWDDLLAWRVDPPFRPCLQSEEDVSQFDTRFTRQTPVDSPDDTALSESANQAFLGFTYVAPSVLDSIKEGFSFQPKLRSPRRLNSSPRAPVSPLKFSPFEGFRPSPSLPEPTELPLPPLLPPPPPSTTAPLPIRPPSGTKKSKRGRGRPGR
Vascular endothelial growth factor receptor 3, sequence (P35916 whole entry): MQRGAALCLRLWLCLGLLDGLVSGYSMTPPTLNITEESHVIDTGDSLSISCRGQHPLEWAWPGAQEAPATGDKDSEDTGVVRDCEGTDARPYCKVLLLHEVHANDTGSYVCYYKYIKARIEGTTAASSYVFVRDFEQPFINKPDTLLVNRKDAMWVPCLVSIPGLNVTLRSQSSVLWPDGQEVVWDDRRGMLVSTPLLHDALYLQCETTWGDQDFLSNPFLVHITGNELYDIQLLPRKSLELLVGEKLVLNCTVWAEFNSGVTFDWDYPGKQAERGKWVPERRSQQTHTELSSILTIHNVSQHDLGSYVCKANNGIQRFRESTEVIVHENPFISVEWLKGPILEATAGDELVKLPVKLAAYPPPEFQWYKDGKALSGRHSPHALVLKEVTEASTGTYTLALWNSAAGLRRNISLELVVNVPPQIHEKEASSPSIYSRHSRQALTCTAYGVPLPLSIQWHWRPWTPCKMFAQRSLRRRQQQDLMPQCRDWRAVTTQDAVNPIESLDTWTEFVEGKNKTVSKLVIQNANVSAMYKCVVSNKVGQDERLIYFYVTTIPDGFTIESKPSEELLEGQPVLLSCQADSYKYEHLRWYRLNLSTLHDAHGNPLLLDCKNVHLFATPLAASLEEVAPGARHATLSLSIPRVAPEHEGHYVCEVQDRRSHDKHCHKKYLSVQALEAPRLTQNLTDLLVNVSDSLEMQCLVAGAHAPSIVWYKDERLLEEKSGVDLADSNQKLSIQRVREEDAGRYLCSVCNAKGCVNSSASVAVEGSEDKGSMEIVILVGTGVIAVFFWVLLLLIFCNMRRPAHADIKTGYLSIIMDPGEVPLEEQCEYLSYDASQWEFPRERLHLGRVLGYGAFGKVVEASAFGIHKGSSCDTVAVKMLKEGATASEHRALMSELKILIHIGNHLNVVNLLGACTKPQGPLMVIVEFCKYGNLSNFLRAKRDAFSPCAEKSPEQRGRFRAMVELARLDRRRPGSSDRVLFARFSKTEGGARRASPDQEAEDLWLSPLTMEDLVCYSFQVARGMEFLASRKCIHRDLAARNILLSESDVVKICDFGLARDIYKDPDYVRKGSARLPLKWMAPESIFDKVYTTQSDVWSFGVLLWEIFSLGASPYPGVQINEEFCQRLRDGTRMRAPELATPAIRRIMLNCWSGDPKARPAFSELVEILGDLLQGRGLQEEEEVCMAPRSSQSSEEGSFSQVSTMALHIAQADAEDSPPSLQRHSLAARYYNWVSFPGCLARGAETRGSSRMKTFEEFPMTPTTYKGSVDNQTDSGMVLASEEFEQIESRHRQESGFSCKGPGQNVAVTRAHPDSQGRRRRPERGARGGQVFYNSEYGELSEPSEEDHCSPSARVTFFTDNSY
Ribosomal protein S6 kinase alpha-5 (Homo sapiens), sequence (O75582 whole entry, looked up): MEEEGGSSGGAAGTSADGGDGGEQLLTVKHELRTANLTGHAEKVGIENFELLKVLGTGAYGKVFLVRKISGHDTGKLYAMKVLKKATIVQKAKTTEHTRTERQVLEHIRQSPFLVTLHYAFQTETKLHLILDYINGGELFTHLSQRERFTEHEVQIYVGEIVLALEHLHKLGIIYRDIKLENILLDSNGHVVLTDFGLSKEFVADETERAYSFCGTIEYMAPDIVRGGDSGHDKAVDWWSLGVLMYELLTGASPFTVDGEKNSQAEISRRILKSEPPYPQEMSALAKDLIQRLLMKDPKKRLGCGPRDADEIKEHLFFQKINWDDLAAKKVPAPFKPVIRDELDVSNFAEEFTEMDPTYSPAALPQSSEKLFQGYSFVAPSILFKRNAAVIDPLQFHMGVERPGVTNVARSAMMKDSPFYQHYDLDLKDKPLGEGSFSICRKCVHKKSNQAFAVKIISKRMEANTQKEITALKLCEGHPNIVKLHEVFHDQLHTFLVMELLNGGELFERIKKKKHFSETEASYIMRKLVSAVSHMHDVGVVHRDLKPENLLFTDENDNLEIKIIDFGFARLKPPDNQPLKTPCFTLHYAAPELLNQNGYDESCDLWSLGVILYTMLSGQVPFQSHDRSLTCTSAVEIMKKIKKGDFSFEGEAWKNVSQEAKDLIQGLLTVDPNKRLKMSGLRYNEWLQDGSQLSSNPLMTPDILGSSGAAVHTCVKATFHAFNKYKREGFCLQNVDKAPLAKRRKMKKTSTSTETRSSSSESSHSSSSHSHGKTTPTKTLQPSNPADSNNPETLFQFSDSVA
Ribosomal protein S6 kinase alpha-1, sequence (Q15418 whole entry): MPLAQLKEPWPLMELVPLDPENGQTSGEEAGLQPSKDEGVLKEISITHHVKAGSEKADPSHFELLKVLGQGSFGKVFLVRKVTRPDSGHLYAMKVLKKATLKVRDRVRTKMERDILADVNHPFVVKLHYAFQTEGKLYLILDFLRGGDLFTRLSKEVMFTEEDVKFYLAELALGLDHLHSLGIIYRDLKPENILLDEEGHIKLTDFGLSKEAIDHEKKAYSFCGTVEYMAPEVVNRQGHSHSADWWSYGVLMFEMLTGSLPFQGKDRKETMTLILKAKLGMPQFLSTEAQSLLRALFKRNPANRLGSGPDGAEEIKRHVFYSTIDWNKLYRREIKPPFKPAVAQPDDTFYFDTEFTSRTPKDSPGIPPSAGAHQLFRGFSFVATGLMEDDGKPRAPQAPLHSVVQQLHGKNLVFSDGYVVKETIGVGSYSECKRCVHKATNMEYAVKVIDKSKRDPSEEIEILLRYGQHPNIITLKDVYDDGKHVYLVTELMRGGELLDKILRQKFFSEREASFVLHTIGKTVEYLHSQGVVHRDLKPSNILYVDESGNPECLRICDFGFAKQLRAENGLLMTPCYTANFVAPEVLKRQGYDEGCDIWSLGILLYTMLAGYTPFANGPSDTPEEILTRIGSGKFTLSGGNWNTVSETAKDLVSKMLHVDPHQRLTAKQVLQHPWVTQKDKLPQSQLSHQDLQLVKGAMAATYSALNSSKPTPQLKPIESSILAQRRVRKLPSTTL
Mitogen-activated protein kinase kinase kinase 10 (Homo sapiens), sequence (Q02779 whole entry, looked up): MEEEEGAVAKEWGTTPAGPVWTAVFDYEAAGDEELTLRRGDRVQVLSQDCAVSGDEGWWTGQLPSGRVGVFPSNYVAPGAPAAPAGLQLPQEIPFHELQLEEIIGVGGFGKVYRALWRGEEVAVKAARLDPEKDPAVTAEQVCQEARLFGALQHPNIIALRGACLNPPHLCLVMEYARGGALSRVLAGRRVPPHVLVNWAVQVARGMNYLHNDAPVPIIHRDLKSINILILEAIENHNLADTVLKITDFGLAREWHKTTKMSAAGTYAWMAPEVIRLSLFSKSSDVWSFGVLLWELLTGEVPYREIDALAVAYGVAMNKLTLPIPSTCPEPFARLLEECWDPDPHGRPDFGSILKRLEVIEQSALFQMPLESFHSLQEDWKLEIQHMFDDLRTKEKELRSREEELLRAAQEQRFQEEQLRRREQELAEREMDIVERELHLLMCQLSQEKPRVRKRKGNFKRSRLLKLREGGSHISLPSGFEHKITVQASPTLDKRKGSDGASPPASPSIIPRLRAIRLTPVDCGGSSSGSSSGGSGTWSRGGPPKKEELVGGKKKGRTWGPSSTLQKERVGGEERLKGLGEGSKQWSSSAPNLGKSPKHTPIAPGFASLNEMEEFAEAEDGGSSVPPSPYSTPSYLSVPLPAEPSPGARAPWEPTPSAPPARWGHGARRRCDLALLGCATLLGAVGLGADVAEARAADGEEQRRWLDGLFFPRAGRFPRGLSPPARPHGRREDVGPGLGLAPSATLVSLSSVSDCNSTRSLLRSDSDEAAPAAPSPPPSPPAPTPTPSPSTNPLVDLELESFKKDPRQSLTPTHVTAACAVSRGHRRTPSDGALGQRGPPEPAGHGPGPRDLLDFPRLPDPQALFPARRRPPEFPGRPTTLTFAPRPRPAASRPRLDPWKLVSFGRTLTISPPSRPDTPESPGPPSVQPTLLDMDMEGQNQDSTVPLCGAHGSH
CDK1/Cyclin A (Homo sapiens), sequence (P06493 whole entry, looked up): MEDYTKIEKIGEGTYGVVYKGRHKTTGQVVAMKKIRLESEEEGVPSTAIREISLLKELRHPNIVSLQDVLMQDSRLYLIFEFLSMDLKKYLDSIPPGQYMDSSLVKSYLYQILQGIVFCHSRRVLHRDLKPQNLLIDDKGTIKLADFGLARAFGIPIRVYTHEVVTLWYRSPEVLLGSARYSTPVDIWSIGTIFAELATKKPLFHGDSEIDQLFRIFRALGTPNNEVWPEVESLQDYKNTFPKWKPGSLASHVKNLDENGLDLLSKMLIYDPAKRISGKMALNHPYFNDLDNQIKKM
CDK1/Cyclin A (Homo sapiens), sequence (P20248 whole entry, looked up): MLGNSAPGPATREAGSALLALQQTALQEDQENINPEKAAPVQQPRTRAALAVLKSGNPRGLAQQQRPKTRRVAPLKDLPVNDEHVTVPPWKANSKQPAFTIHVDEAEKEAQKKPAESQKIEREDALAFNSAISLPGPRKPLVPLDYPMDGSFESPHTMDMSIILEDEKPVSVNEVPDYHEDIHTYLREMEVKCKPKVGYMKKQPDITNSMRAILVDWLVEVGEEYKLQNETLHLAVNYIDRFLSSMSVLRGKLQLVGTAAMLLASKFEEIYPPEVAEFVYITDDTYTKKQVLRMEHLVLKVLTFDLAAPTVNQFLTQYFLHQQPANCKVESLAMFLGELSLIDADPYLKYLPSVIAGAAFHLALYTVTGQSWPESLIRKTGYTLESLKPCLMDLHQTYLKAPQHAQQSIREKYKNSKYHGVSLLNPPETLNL

As to `Cn1cc(-n2cnc3c(NCc4nc5cc(Cl)c(Cl)cc5[nH]4)nc(N4CCOCC4)nc32)cn1`, the % of inhibition in [1] is -246%. With `C=CC(=O)Nc1ccc(C(=O)Nc2[nH]nc3c2CN(C(=O)N[C@H](CN(C)C)c2ccccc2)C3(C)C)cc1`, the % of engagement was -31.2% in [2] and -0.1% in test [3]. In the case of `CNC(=O)Nc1ccc(-c2nc(N3CC4CCC(C3)O4)c3cnn(C4CCC5(CC4)OCCO5)c3n2)cc1`, in test [4], the % of inhibition amounted to 6%. As for `O=C(NOC[C@H](O)CO)c1ccc(F)c(F)c1Nc1ccc(I)cc1F`, the % of control in [5] was determined as 78%.

As to `Nc1cnc(N2CCc3cc(S(=O)(=O)Nc4c(F)cc(Cl)cc4F)cc(N4CCCC4=O)c32)nc1` [TP-020n], the % of control in test [6] came out at 85%. In the case of `CN1Cc2nccc(-c3cn(C)nc3-c3ccc(F)cc3)c2C1=O`, in test [7], the % of inhibition came to 0%. For `CC[C@@H]1[C@H](F)C(=O)N[C@@H]1COc1nccc2cc(C(N)=O)c(OC)cc12` [ZIMLOVISERTIB], the % of inhibition in test [8] (at 0.01 µM) was -0.4%; in test [8] (at 0.04 µM) it was 9.9%; in [8] (at 0.2 µM), -6.2%; in [8] (at 1 µM), -5.5%; in test [8] (at 5 µM), 3.9%. For the molecule `C=CC(=O)Nc1cc(-n2c(=O)ccc3cnc4ccc(-c5ccc(NS(C)(=O)=O)cc5)cc4c32)ccc1C`, the % of control in [9] (at 1 µM) is 72%; in [9] (at 10 µM), 100%.
